Laboratory results published in patent US20260256921A1, “BIFUNCTIONAL MOLECULES TO TARGET DEGRADATION OF TUMOR NECROSIS FACTOR” (Biohaven Therapeutics Ltd., priority 2023, published 2026).
pIC50, pKd: −log10 of the molar value. Read-outs that look alike come from different tables or passages of the source.

Legend:
human TNF-α [1] = molecular target: T1, human TNF-α (Homo sapiens, UniProt P01375); test: TNF-α functional assay (hHEK-TNF-α SEAP reporter cells); assay type: cell-based; design: purchased ACROBiosystems TNA-H4211
Source text: Human HEK TNF-αcells (hHEK-TNF-α cells; InvivoGen Catalog #hkb-tnfdmyd; San Diego, CA, USA) are human embryonic kidney HEK293 cells that are stably transfected with the reporter gene, secreted alkaline phosphatase (SEAP). The hHEK-TNF-α cells allow for the detection of bioactive human and murine TNF-α via the activation of the NF-kB-inducible promoter and subsequent production of SEAP. Bioactivity of commercial human TNF-α protein (ActiveMax® Human TNF-α Protein, Tag Free, Low Endotoxin; available by ACROBiosystems Catalog #TNA-H4211; Newark, DE, USA) was determined in this reporter system.
Test molecules were dissolved in 100% DMSO and serially diluted by either 3-fold serial dilution or 4-fold serial dilution. […] TNF-α protein was added at the previously determined ECso. Plates containing cells, test molecules, and cytokine were incubated overnight for 18-24 hours at 37° C., 5% CO2.
The level of SEAP in the supernatant of each well was quantified using the Quanti Blue™ Solution (InvivoGen Catalog #rep-qba2; San Diego, CA, USA), a reagent with a colorimetric change in the presence of SEAP. To perform the Quanti-Blue assay: 20 L of the sample supernatant after the overnight 18-24 hour incubation was added to 180 L of Quanti Blue™ Reagent and incubated for 45 minutes at 37° C. […] Inhibition of TNF-α signaling was calculated utilizing GraphPad Prism (San Diego, CA, USA).
Target sequence in this assay (P01375 77-233 limits assumed): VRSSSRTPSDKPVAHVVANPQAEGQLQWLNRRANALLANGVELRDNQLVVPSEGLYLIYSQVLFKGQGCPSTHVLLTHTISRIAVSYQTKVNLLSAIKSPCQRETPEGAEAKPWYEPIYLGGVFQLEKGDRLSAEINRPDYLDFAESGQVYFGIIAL

human TNF-α [2] = molecular target: T1, human TNF-α; test: TNF-α thermal melt assay; assay type: binding; design: Amino acids 77-233 of Human TNF-α protein with an N-terminal GST tag; GST (N, cleaved yes); made in house; host or cells: Escherichia coli (BL21 NiCo)
Description: Protein was purified using glutathione agarose purification columns (Pierce™, Waltham, MA, USA). Following purification, the GST tag was removed using HRV3c protease (Pierce™, Waltham, MA, USA) and the GST tag and the TNF-α were separated via ion exchange chromatography using a 20 mM HEPES pH 8.0 buffer system ramping from 0 to 1 M NaCl over 12 column volumes with 5 ml of Q Sepharose (HiScreen Q HP, Cytiva™, Marlborough, MA, USA). The final protein includes the amino acids GPLGSG at the N-terminus of the protein.
Protein was heated from 20° C. to 95° C. at one degree per minute in a Roche Opus384 qPCR machine.
Target sequence in this assay (P01375 77-233): as the sequence (P01375 77-233 limits assumed) above

[3] = hHEK-TNF-α cells, SEAP readout, TNF-α added at EC80 (1.034 pM), 18-24 hours, read-out: TNF-α Function IC50
[4] = thermal melt, SYPRO Orange, Kd calculated as in Matulis et al., read-out: TM Kd

Row | pIC50 (human TNF-α [1]) | pKd (human TNF-α [2]) | pIC50 (human TNF-α [1]; [3]) | pKd (human TNF-α [2]; [4]) | Compound
1 | 6.62 | > 9.00 |  |  | CN1CCN(Cc2ccc(-c3c[nH]c4ccncc34)c(OCCc3ccc(-c4cccc5ccncc45)cc3)c2)CC1 [Intermediate 25]
2 |  |  | 6.09 |  | CC(C)(C)OC(=O)CCOCCOCCOCCOCCOCCOCCC(=O)N1CCN(Cc2ccc(-c3c[nH]c4ccncc34)c(OCCc3ccc(-c4cccc5ccncc45)cc3)c2)CC1 [Intermediate 18]
3 |  |  | 6.64 | 7.16 | O=C(O)CCOCCOCCOCCOCCOCCOCCOCCOCCC(=O)N1CCN(Cc2ccc(-c3c[nH]c4ccncc34)c(OCCc3ccc(-c4cccc5ccncc45)cc3)c2)CC1 [Intermediate 4]
4 |  |  | 6.47 | 7.51 | CC(C)(C)OC(=O)CCOCCOCCC(=O)N1CCN(Cc2ccc(-c3c[nH]c4ccncc34)c(OCCc3ccc(-c4cccc5ccncc45)cc3)c2)CC1 [Intermediate 23]
5 |  |  | 6.43 |  | O=C(O)CCOCCOCCOCCOCCOCCOCCC(=O)N1CCN(Cc2ccc(-c3c[nH]c4ccncc34)c(OCCc3ccc(-c4cccc5ccncc45)cc3)c2)CC1 [Intermediate 19]
6 |  |  | 6.61 | 6.66 | O=C(O)CCOCCOCCC(=O)N1CCN(Cc2ccc(-c3c[nH]c4ccncc34)c(OCCc3ccc(-c4cccc5ccncc45)cc3)c2)CC1 [Intermediate 24]
7 |  |  | 6.00 | 6.92 | CC(C)(C)OC(=O)CCOCCOCCOCCOCCOCCOCCOCCOCCC(=O)N1CCN(Cc2ccc(-c3c[nH]c4ccncc34)c(OCCc3ccc(-c4cccc5ccncc45)cc3)c2)CC1 [Intermediate 3]
